{
  "source": "patent US4613587A",
  "about": "“Ophthalmic preparations” (Yeda Research and Development Co. Ltd., priority 1983, dated 1986)",
  "key": {"[1]": {"target": "T1, Pseudomonas aeruginosa elastase (Pseudomonas aeruginosa, UniProt P14756)", "T1 sequence (P14756 198-498)": "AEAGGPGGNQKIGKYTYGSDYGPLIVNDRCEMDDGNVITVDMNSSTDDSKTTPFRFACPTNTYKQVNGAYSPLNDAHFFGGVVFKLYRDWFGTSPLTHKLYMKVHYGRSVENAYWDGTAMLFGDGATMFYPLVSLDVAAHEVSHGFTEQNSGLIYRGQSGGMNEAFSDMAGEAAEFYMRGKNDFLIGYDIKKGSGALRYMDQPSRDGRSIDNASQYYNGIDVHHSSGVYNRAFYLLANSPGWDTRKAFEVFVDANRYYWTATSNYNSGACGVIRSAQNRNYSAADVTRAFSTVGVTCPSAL", "test": "Protection of the cornea: pure elastase injected into rabbit cornea together with inhibitor", "type": "in vivo", "conditions": "rabbit eye, about 1 μg elastase injected with 0.2 μmole (70 μg) inhibitor", "description": "1. When about 1 μg of the pure elastase is injected into the cornea of a rabbit eye, the cornea \"dissolves\", swells and perforates within about an hour and a half from the time of the injection of the elastase. When the same amount of enzyme is injected in the presence of 0.2μ mole (70 μg) of the inhibitor mercaptoacetyl-L-phenylalanyl-L leucine, the dissolution effect is postponed to about 9 hours from the injection of the enzyme. […] The perforation of the cornea is prevented."}, "[2]": {"test_system": "Pseudomonas aeruginosa", "test": "Experimental model of Pseudomonas keratitis in rabbit eyes, antibiotic plus inhibitor versus antibiotic alone", "type": "in vivo", "conditions": "10 mM inhibitor drops combined with 0.3% gentamicin sulfate", "description": "3. The efficacy of combined treatment with antibiotics and the inhibitor HSAc-Phe-Leu was compared with that of the antibiotics alone using an experimental model of Pseudomonas keratitis in rabbit eyes. The inhibitor at a concentration of 10 mM was given, one drop at a time, every 15 min. for 1 hour after infection with the bacteria, and then hourly for additional 44 hours. The antibiotic (0.3% gentamicin sulfate) was applied every 2 hours, starting 16 hours after infection."}, "[3]": {"target": "T1, Pseudomonas aeruginosa elastase", "test": "Protection of the cornea: topical inhibitor drops before and after elastase injection into rabbit cornea", "type": "in vivo", "conditions": "10 mM solution", "from_the_text": "2. […] This series of experiments proves that the mercaptoacetyl dipeptide is an effective agent preventing damage to the eye caused by Pseudomonas aeruginosa elastase."}, "[4]": {"target": "Pseudomonas elastase (Pseudomonas aeruginosa, UniProt P14756)", "sequence (P14756 198-498)": "as above", "test": "biochemical", "description": "Measurements were performed at 25° C. The reaction solutions (2.5 ml) ocnsisted of 0.1-0.2 mM substrate in 0.1M NaCl-0.05M Tris. HCl-0.01M CaCl2, pH 7.5; all were demetallized. The hydrolysis of substrate was first order and rates were determined from plots of (At -A) versus t (At and A represent absorbance at time t and after completion of the reaction, respectively). Inhibition constants (Ki) were derived from plots of ko /ki versus inhibitor concentration (ko and ki are the observed rate constants in absence and presence of inhibitors, respectively).\nThe inhibition characteristics of […] for Pseudomonas elastase, using furylacryloyl-Gly-Leu-Ala as the substrate, was determined. […] The Ki value for HS-Ac-Phe-Leu was 0.2 μM."}, "[5]": {"target": "elastase of P. aeruginosa (Pseudomonas aeruginosa, UniProt P14756)", "sequence (P14756 198-498)": "as above", "conditions": "background; known inhibitors effective at rather large concentrations; cited from earlier work"}, "[6]": {"test_system": "Pseudomonas aeruginosa", "test": "Rabbit eyes infected with P. aeruginosa, topical treatment (Expt. A and B), clinical scores and corneal melting", "type": "in vivo", "conditions": "for Development of extensive corneal melting (%) / Development of extensive corneal melting, No. of eyes with melting/No. of eyes in group: extensive: 30% of corneal area affected; for Development of corneal melting (%) / Development of corneal melting, No. of eyes with melting/No. of eyes in group: rabbit eyes; for Clinical Scores: individual rabbit eyes, scoring of Table 3, maximum 10", "description": "Further experiments were carried out. The schedule of topical treatment is set out in Table 2. The criteria applied to the results are set out in Table 3. […]"}},
  "note": "pKi: −log10 of the molar value. Values joined by “and” are separate entries in the source; they are usually repeats but may differ in a detail not shown here. Equal entries are not always repeated. Where two headings read alike, the source gives them in different places.",
  "data": [
    {"compound": "CC(C)C[C@H](NC(=O)[C@H](Cc1ccccc1)NC(=O)CS)C(=O)O", "note": "[HS-Ac-Phe-Leu, mercaptoacetyl-L-phenylalanyl-L-leucine]", "values": [
      {"measurement": "perforation of the cornea", "setting": "[1]", "value": "prevented"},
      {"measurement": "damage caused, part of the cornea affected", "setting": "[1]; after about 9 hours", "value": "≤ 10", "unit": "%"},
      {"measurement": "time from injection of the enzyme to which the dissolution effect of the cornea is postponed", "setting": "[1]; without inhibitor about an hour and a half", "value": "about 9 hours"},
      {"measurement": "severity of the damage caused to the eyes, versus antibiotic alone", "setting": "[2]", "value": "significantly lower"},
      {"measurement": "dissolution of the cornea", "setting": "[3]; topical drops before and after enzyme injection", "value": "no \"dissolution\" of the cornea takes place at all"},
      {"measurement": "appearance of the eye", "setting": "[3]; topical drops, remains for many hours after cessation of treatment", "value": "entirely normal"},
      {"measurement": "pKi", "setting": "[4]", "value": 6.70}
    ]},
    {"compound": "c1cnc2c(c1)ccc1cccnc12", "note": "[O-phenanthroline]", "values": [
      {"measurement": "inhibition of the elastase", "setting": "[5]", "value": "inhibited"}
    ]},
    {"compound": "CC(C)C[C@H](NC(=O)CS)C(=O)N[C@H](Cc1ccccc1)C(=O)O", "note": "[HS-Ac-Leu-D-Phe]", "values": [
      {"measurement": "pKi", "setting": "[4]; 25° C., pH 7.5, substrate furylacryloyl-Gly-Leu-Ala, read-out: Ki", "value": 4.47}
    ]},
    {"compound": "gentamicin sulfate", "values": [
      {"measurement": "Development of extensive corneal melting (%)", "setting": "[6]; 28 h after infection", "value": 27, "unit": "%"},
      {"measurement": "Development of extensive corneal melting, No. of eyes with melting/No. of eyes in group", "setting": "[6]; 28 h after infection", "value": "4/15"},
      {"measurement": "Development of corneal melting (%)", "setting": "[6]; 28 h after infection", "value": 73, "unit": "%"},
      {"measurement": "Development of corneal melting, No. of eyes with melting/No. of eyes in group", "setting": "[6]; 28 h after infection", "value": "11/15"},
      {"measurement": "Clinical Scores", "setting": "[6]; 28 hours after infection, Expt. A", "value": "7 and 4 and 3 and 6 and 1"},
      {"measurement": "Clinical Scores", "setting": "[6]; 28 hours after infection, Expt. B", "value": "3 and 2 and 1 and 6"},
      {"measurement": "Development of extensive corneal melting (%)", "setting": "[6]; 48 h after infection", "value": 60, "unit": "%"},
      {"measurement": "Development of extensive corneal melting, No. of eyes with melting/No. of eyes in group", "setting": "[6]; 48 h after infection", "value": "9/15"},
      {"measurement": "Development of corneal melting (%)", "setting": "[6]; 48 h after infection", "value": 93, "unit": "%"},
      {"measurement": "Development of corneal melting, No. of eyes with melting/No. of eyes in group", "setting": "[6]; 48 h after infection", "value": "14/15"},
      {"measurement": "Clinical Scores", "setting": "[6]; 48 hours after infection, Expt. A", "value": "7 and 10 and 6 and 4 and 3"},
      {"measurement": "Clinical Scores", "setting": "[6]; 48 hours after infection, Expt. B", "value": "6 and 7 and 5 and 4"}
    ]},
    {"compound": "CC(C)C[C@H](NC(=O)CS)C(=O)N[C@@H](Cc1ccccc1)C(=O)O", "note": "[HS-Ac-Leu-Phe, 2-mercaptoacetyl-L-leucyl-L-phenylalanine]", "values": [
      {"measurement": "pKi", "setting": "[4]", "value": 5.82}
    ]},
    {"compound": "O=C(O)CN(CCN(CC(=O)O)CC(=O)O)CC(=O)O", "note": "[EDTA]", "values": [
      {"measurement": "inhibition of the elastase", "setting": "[5]", "value": "inhibited"}
    ]}
  ]
}
